For test [1], the system named is p65 (RelA) nuclear translocation in THP-1 cells. As to the kind of experiment: Indirect immunofluorescence for NF-κB nuclear translocation. The following applies: pretreated 1 h, LPS 30 min; Bay 11-7082 10 μM. The format is cell-based, human. The method, then:
(§1) THP-1 cells were maintained in RPMI 1640 medium supplemented with 10% complement-inactivated FBS and 1% penicillin/streptomycin (complete culture medium) at 37° C. with 5% CO2 supplemented. Cell concentrations were adjusted to desired concentrations for each experiment by centrifugation at 500×g for 5 min and resuspended in complete culture medium with 100 nM of PMA. Cell concentration was adjusted to 5×10^5 cells/ml for all assays and 2.5×10^5 cells/ml were used for NF-κB nuclear translocation assay. Cells were seeded onto 96-, 24-, or 12-well plates and incubated for 48 to 72 h to allow for differentiation. Cells were washed with serum-free RPMI 1640 medium before each experiment to remove the undifferentiated cells.
Differentiated THP-1 cells were pretreated with 50 μM of cis-gnetin H, trans-gnetin H, or 10 μM of Bay 11-7082 for 1 h and stimulated with 1 μg/ml of LPS for 30 min. Bay 11-7082 is a compound that inhibits IKK α/β and IκB α phosphorylation and was used as a positive control (Juliana et al., 2010, J. Biol. Chem., 285:9792-802). Treated cells were fixed, permeabilized, blocked, and stained with NF-κB, p65 primary antibody, Dylight 488 conjugated secondary antibody, and Hoechst 33342 dye, sequentially. The Hoechst and DyLight fluorophores detect changes in nuclear morphology (blue fluorescence) and NF-κB distribution (green fluorescence) respectively. Nuclear Translocation Bioapplication software on the Arrayscan VTI reader was used for image acquisition and analysis. For each well, at least 400 cells were automatically acquired and analyzed. The translocation index was calculated by measuring the average intensity difference of NF-icB between the identified cytoplasmic region and nuclear region.

Test [2] has as its system IL-1β in LPS-stimulated THP-1 cells. Briefly: Cytokine response by ELISA, IL-1β. Format: cell-based, human. To be noted: Homo sapiens, THP-1; 1 μM, 20 ng/ml LPS 4 h. On the procedure: as §1
(§2) Differentiated THP-1 cells were pretreated with various concentrations of cis-gnetin H, trans-gnetin H, or 1 μM of dexamethasone for 1 h and stimulated with 20 ng/ml of LPS for 4 h. Dexamethasone is a synthetic glucocorticoid that suppresses cytokine response and was used as a positive control (Abraham et al., 2006, J. Exp. Med., 203:1883-9; Steer et al., J. Biol. Chem., 2000, 275(24):18432-40). Supernatants were collected for human cytokine ELISAs and the manufacturer's protocol was followed to assess the cytokine response. Cells remaining after the supernatant collection were tested for relative viability by Alamar Blue cytotoxicity assay as described earlier.
For orientation: In an ELISA, binding on a coated surface is turned into a signal by an enzyme label.

For test [3], the system named is TNF-α in LPS-stimulated THP-1 cells. As to the kind of experiment: Cytokine response by ELISA, TNF-α. Format: cell-based, human. To be noted: Homo sapiens, THP-1; 1 μM, 20 ng/ml LPS 4 h. On the procedure: as §1, §2
Test [4] relates to IL-8 in LPS-stimulated THP-1 cells. As to the kind of experiment: Cytokine response by ELISA, IL-8. Format: cell-based, human. To be noted: Homo sapiens, THP-1; 1 μM, 20 ng/ml LPS 4 h. The method, then:
as §1, §2

Test [5] deals with A549 lung cancer cell line. The following applies: literature values; read-out: IC50 against the A549 lung cancer cell line; cited from earlier work.

Structures are written as SMILES. “And” between values parts separate entries of the source, which are not always exact repeats. Equal values may be shown once.

Consider three molecules from patent publication US11007169B2, “Cis-gnetin H and trans-gnetin H as therapeutic agents” (MIDDLE TENNESSEE STATE UNIVERSITY, priority 2014, dated 2021).

For the molecule `Cc1ccc(S(=O)(=O)C=CC#N)cc1` [Bay 11-7082, 3-(4-methylphenylsulfonyl)-2-propenenitrile, reference compound], the p65 nuclear translocation entry in test [1] is listed as “inhibited the p65 nuclear translocation”.

As for `C[C@@H]1C[C@H]2[C@@H]3CCC4=CC(=O)C=C[C@]4(C)[C@@]3(F)[C@@H](O)C[C@]2(C)[C@@]1(O)C(=O)CO` [Dexamethasone, dexamethasone, reference compound], the inhibition at 1 µM in test [2] is 56%; in test [3], 58%; in test [4] it was 63%.

`Oc1ccc(C=Cc2cc(O)cc(O)c2)cc1` [Resveratrol, 3,5,4′-trihydroxystilbene]: the IC50 in test [5] is 8.9 µM and > 10 µM.

By inhibition is commonly meant the change of the read-out against control, counted positive when it falls. Read a low inhibition as little suppression. As a reminder, the IC50 is the concentration at which inhibition is half-maximal.
